One compound from patent US20250360183A1, “USE OF GMI FROM GANODERMA LUCIDUM SPORES IN THE PREPARATION OF PHARMACEUTICALS AND FOOD PRODUCTS” (Titan Biological & Agricultural Technology Co., Limited, priority 2024, published 2025) can be followed below.

Molecules are shown by their SMILES.

In assay [1] the test system is fibronectin, COL1A1, and α-SMA. The assay is described as follows: Western blot of fibrosis markers in TGF-β1-induced fibrotic LL29 cells. In kind it is cell-based, human. Particulars: LL29 cells stimulated with TGF-β1 5 ng/ml, normalized to α-tubulin. On the procedure:
In the in vitro experiments, cells were pre-treated with test compounds and subsequently stimulated with recombinant TGF-β1 to induce fibrotic processes. TGF-β1 plays a critical role in epithelial-mesenchymal transition (EMT), a key driver in the differentiation of fibroblasts into myofibroblasts. LL29 cells, derived from IPF patient lung fibroblasts, were obtained from ATCC®. Upon reaching 70% confluence, cells were pre-treated with selected concentrations of GMI in low-serum media for 2 hours, followed by exposure to 5 ng/ml of recombinant human TGF-β1 (R&D Systems, MN, USA) for 48 hours.
Cell lysates were prepared in RIPA buffer. […] Protein expression was quantified using Fiji software.
The present invention evaluated the expression levels of fibronectin, COL1A1, and alpha-smooth muscle actin (α-SMA), as these proteins are key markers associated with myofibroblasts and extracellular matrix (ECM) remodeling.
FIG. 3 (A) presents the results of Western blot analysis showing the expression of fibronectin, COL1A1, α-SMA, and the internal loading control α-tubulin. FIGS. 3 (B), (C) and (D) show the quantification of protein expression based on band intensity, represented as fold changes in the ratios of fibronectin/α-tubulin, COL1A1/α-tubulin, and α-SMA/α-tubulin, normalized to the untreated control (NT) group. […]
In general terms: Immunoblotting shows a protein as a band on a membrane.

Assay [2] deals with BLM-induced pulmonary fibrosis. The assay is described as follows: BLM-induced pulmonary fibrosis mouse model. In kind it is in vivo, C57BL/6J mice. The settings on record: BLM 2.5 U/kg mice. On the procedure: Four groups were intratracheally administered bleomycin (BLM; 2.5 U/kg) to induce pulmonary fibrosis, while one group served as a normal control. The treatment groups included: BLM-only, BLM+GMI (1 mg/kg), BLM+GMI (2 mg/kg), and BLM+PFD (200 mg/kg). All surviving animals were sacrificed on day 22.

For `Cc1ccc(=O)n(-c2ccccc2)c1` [PFD, pirfenidone], the “expression levels of fibronectin, COL1A1 and α-SMA” value in assay [1] is “failed to suppress the TGF-β1-induced upregulation”. This compound came in with a survival rate in assay [2] (PFD 200 mg/kg) of 50%. For the same compound, the “lung appearance (gross examination, color)” value in assay [2] (compared to normal group) is “color and appearance comparable to the normal group”.
